Measurements as given in ChEMBL document CHEMBL1201862, “PubChem BioAssay data set” (2004).
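All cell lines were grown in 96-well plates and treated with compound for 48 hours. GI50 marks 50% less growth.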 Activity calls are given as the source filed them. Rule as the data show it: active = GI50 up to about 1.1 µM and inactive = higher.

How the values were obtained:
Test in all cases: NCI-60 cell line screen, 48 h
786-0 = test system: 786-0
A549 = test system: A549
ACHN = test system: ACHN
CAKI-1 = test system: CAKI-1
CCRF-CEM = test system: CCRF-CEM
COLO 205 = test system: COLO 205
DLD-1 = test system: DLD-1
DMS-114 = test system: DMS-114
HCC 2998 = test system: HCC 2998
HCT-116 = test system: HCT-116
HCT-15 = test system: HCT-15
HL-60 = test system: HL-60
HOP-62 = test system: HOP-62
HOP-92 = test system: HOP-92
HT-29 = test system: HT-29
IGROV-1 = test system: IGROV-1
K562 = test system: K562
KM-20L2 = test system: KM-20L2
KM12 = test system: KM12
LOX IMVI = test system: LOX IMVI
LXFL 529 = test system: LXFL 529
M14 = test system: M14
MOLT-4 = test system: MOLT-4
Malme-3M = test system: Malme-3M
NCI-H226 = test system: NCI-H226
NCI-H23 = test system: NCI-H23
NCI-H460 = test system: NCI-H460
NCI-H522 = test system: NCI-H522
OVCAR-3 = test system: OVCAR-3
OVCAR-4 = test system: OVCAR-4
OVCAR-5 = test system: OVCAR-5
OVCAR-8 = test system: OVCAR-8
RPMI-8226 = test system: RPMI-8226
RXF 393 = test system: RXF 393
RXF 631 = test system: RXF 631
SF-268 = test system: SF-268
SF-295 = test system: SF-295
SF-539 = test system: SF-539
SK-MEL-28 = test system: SK-MEL-28
SK-MEL-5 = test system: SK-MEL-5
SK-OV-3 = test system: SK-OV-3
SN12C = test system: SN12C
SNB-19 = test system: SNB-19
SNB-75 = test system: SNB-75
SNB-78 = test system: SNB-78
SR = test system: SR
SW-620 = test system: SW-620
TK-10 = test system: TK-10
U-251 = test system: U-251
UACC-257 = test system: UACC-257
UACC-62 = test system: UACC-62
UO-31 = test system: UO-31
XF498 = test system: XF498

Measured: GI50

COC(=O)[C@]1(C)CCCC2(C)C1CC[C@H]1C=C(C)[C@H]3CCC12C3 (stereo partly drawn)
inactive: 786-0 > 100 µM | A549 > 100 µM | ACHN > 100 µM | CAKI-1 > 100 µM | CCRF-CEM > 100 µM | COLO 205 > 100 µM | DLD-1 > 100 µM | DMS-114 86.9 µM | HCC 2998 > 100 µM | HCT-116 40.3 µM | HL-60 86.1 µM | HOP-62 > 100 µM | HOP-92 > 100 µM | HT-29 49.9 µM | IGROV-1 > 100 µM | K562 > 100 µM | KM-20L2 > 100 µM | KM12 > 100 µM | LOX IMVI 68.2 µM | LXFL 529 > 100 µM | M14 > 100 µM | MOLT-4 > 100 µM | Malme-3M > 100 µM | NCI-H226 > 100 µM | NCI-H23 > 100 µM | NCI-H460 44.5 µM | NCI-H522 45 µM | OVCAR-3 > 100 µM | OVCAR-4 > 100 µM | OVCAR-5 > 100 µM | OVCAR-8 > 100 µM | RPMI-8226 > 100 µM | RXF 393 55.3 µM | RXF 631 > 100 µM | SF-268 > 100 µM | SF-295 > 100 µM | SF-539 > 100 µM | SK-MEL-28 > 100 µM | SK-MEL-5 98.2 µM | SK-OV-3 > 100 µM | SN12C > 100 µM | SNB-19 > 100 µM | SNB-75 > 100 µM | SNB-78 > 100 µM | SR > 100 µM | SW-620 > 100 µM | TK-10 > 100 µM | U-251 > 100 µM | UACC-257 37.5 µM | UACC-62 > 100 µM | UO-31 > 100 µM | XF498 > 100 µM
> 100 µM: HCT-15
